Results on 3 compounds are retold here after ChEMBL document CHEMBL1153652, “Synthesis and biological activity of modified enediyne chemotypes” (Bioorg Med Chem Lett, 1994).

Assay [1] deals with Nucleic Acid. The experiment in a line: In vitro ability to cleave DNA using supercoiled pM2 DNA without beta-mercaptoethanol at a drug concentration of 2E-5; Greater activity. It is filed as functional.
For assay [2], the system named is HCT-116. In words: Inhibitory concentration was determined for cytotoxicity in HCT116 human colon cancer cell line. It is filed as functional, cell-based.
Assay [3] concerns Nucleic Acid. The experiment in a line: In vitro ability to cleave DNA using supercoiled pM2 DNA with beta-mercaptoethanol at a drug concentration of 2E-5; Greater activity. It is filed as functional.
Assay [4] deals with Nucleic Acid. In words: In vitro DNA cleaving activity which induce cell filamentation was evaluated by inducement of the SOS response at a dose of 1000 ug/ml. Format: functional.
Assay [5] concerns Nucleic Acid. In words: In vitro DNA cleaving activity which induce cell filamentation was evaluated by inducement of the SOS response at a dose of 40 ug/ml. It is filed as functional.
The subject of assay [6] is Mus musculus. The experiment in a line: In vivo relative median survival time of drug treated and control mice in murine Madison 109 (M109) lung carcinoma cells at 16 mg/kg/inj. Format: functional.
For assay [7], the system named is Nucleic Acid. In words: In vitro DNA cleaving activity which induce cell filamentation was evaluated by inducement of the SOS response at a dose of 200 ug/ml. Format: functional.
Assay [8] deals with Nucleic Acid. In words: In vitro ability to cleave DNA using supercoiled pM2 DNA without beta-mercaptoethanol at drug concentrations of 2E-5; Greater activity. It is filed as functional.
The test system of assay [9] is Mus musculus. In words: In vivo relative median survival time of drug treated and control mice in murine Madison 109 (M109) lung carcinoma cells at 64 mg/kg/inj. Format: functional.
Assay [10] has as its system Nucleic Acid. The experiment in a line: In vitro ability to cleave DNA using supercoiled pM2 DNA with beta-mercaptoethanol at drug concentrations of 2E-5; Greater activity. Format: functional.
Assay [11] relates to HCT-116. In words: Inhibitory concentration was determined for cytotoxicity in HCT116 human colon cancer cell line. It is filed as functional, cell-based.

As a reminder, the IC50 is the concentration that gives 50% inhibition. A lower IC50 goes with greater potency. Usually T/C stands for the result in the treated group divided by that in the control group, in per cent. As for `O=C1C2=CCCC1(O)C#C/C=C\C#C[C@H]2O` (stereo partly specified), the DNA cleavage result in the assay with Nucleic Acid [1] and with Nucleic Acid [3] was “Greater activity” throughout. This compound had an IC50 with HCT-116 [2] of 100 nM. The Area in the assay on Nucleic Acid [4] was determined as 1620 mm²; in the assay with Nucleic Acid [5], 427 mm²; in the assay on Nucleic Acid [7] it was 954 mm². Moreover, the T/C in the assay on Mus musculus [6] is 144%.
As to `O=C1C2=CCCC1(O)C#Cc1ccccc1C#C[C@H]2O` (stereo partly specified), the DNA cleavage entry in the assay on Nucleic Acid [8] and in the assay on Nucleic Acid [10] was “Greater activity” throughout. This compound registered a T/C with Mus musculus [9] of 107%. For the same compound, in the assay with HCT-116 [2], the IC50 is 1800 nM. In addition, the Area with Nucleic Acid [4], in the assay with Nucleic Acid [5] and with Nucleic Acid [7] was 0 mm² each time.
Regarding `O=C1C2=CCCC1(O)C#CC1=C(C#C[C@H]2O)CCC1` (stereo partly specified), the DNA cleavage entry in the assay on Nucleic Acid [8] and in the assay on Nucleic Acid [10] was “Greater activity” in each case. The T/C in the assay on Mus musculus [9] turned out to be 147%. Also, the Area with Nucleic Acid [4] was 162 mm²; in the assay on Nucleic Acid [5], 0 mm²; with Nucleic Acid [7] it was 75 mm². The compound further came in with a half-maximal inhibitory concentration (IC50) with HCT-116 [11] of 2200 nM.
